Here are results for one compound from article PMC5407626 (PLoS ONE, 2017).

In assay [1] the target is T1, RARβ (Homo sapiens, UniProt P10826).
T1 sequence (P10826 183-417 limits assumed): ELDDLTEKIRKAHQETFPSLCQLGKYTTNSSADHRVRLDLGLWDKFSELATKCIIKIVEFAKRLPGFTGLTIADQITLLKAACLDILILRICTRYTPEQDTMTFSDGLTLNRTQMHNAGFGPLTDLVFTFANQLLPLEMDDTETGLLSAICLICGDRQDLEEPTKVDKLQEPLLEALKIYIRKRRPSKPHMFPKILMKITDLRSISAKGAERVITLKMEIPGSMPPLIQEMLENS
Put plainly: GeneBLAzer RAR-beta DA assay, agonist mode. The format is cell-based. Here is the method: (§1) The potency of agonists and antagonists was measured by GeneBLAzer RAR-beta DA Assay Kit (ThermoFisher Scientific) according to the manufacturer’s recommendations.
The phenylretinamides may have the ability to modulate the expression of proteins and induce cell apoptosis via RAR-dependent and -independent pathways. […] Human retina-derived cells in culture show differences in expression of RAR receptors. […] Clonetics HRPE primary human cells specifically express only RARβ [50].

The target of a further assay is T2, recombinant mouse BCO1 (Mus musculus, UniProt Q9JJS6).
T2 construct: His-tag; made in house; host or cells: E. coli
T2 sequence (Q9JJS6 1-566): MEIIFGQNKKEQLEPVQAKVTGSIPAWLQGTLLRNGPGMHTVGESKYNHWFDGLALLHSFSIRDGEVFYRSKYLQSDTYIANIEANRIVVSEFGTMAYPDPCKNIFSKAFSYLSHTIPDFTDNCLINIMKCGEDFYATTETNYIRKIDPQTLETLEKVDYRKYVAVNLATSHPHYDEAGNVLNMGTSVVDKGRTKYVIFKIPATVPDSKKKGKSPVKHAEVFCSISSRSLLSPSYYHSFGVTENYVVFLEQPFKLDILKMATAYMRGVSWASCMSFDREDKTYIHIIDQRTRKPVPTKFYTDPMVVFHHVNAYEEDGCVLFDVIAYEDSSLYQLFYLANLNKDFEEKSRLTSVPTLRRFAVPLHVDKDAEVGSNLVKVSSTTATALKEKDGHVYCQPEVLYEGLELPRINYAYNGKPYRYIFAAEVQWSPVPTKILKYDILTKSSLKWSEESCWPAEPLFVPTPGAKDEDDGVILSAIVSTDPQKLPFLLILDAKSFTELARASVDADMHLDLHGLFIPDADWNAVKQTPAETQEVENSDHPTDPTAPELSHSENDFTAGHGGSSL
The assay can be described thus: In vitro inhibition of recombinant mouse BCO1 activity. The class given is biochemical. The settings on record: inhibitor 0–200 μM. The source says: Recombinant His-tag mouse BCO1 was produced in E.coli and purified using Talon CellThru (Clontech Labs, Inc., Mountain View, CA) resin as described previously. β-carotene was delivered in 1% octylthioglucoside. […] All other inhibitors were delivered in ethanol. […] The final concentration of ethanol in all samples was 1%. […] Data plotted as means±standard deviation; n = 3; […] Analysis was done in C57BL/6 wt (3 animals) and Bco1^-/- mice (13 animals).

Assay [2] addresses T1, RARβ. The assay can be described thus: GeneBLAzer RAR-beta DA assay, antagonist mode (competition with at-RA). The format is cell-based. Particulars: at-RA 0.5–1.5 nM; tested 10^−5 to 10^−9 M. Here is the method: as §1
The phenylretinamides may have the ability to modulate the expression of proteins and induce cell apoptosis via RAR-dependent and -independent pathways. […] Additionally, apoptosis of neuroblastoma cell lines was blocked by two retinoic acid receptor (RAR)-β/γ-specific antagonists, but not by a RARα-specific antagonist. […] However, in this case the specific RARα-specific antagonist AGN194301 could block fenretinde-induced apoptosis. […] Human retina-derived cells in culture show differences in expression of RAR receptors. […] Clonetics HRPE primary human cells specifically express only RARβ [50].
Fluorescence was measured at excitation (ex) 409 nm/emission (em) 460 and at ex 409nm/em 530 nm and the ratio was determined and plotted against a range of concentrations (10^−5 to 10^−9 M) of the tested compounds.

The next assay deals with RBP4 (Homo sapiens, UniProt P02753). Put plainly: Binding to RBP4. The settings on record: data not shown.

pEC50: −log10 of the molar value.

The term pEC50 denotes the EC50 on a negative log10 scale, so that one unit is a factor of ten. Turning to `CCOc1ccc(NC(=O)/C=C(C)/C=C/C=C(C)/C=C/C2=C(C)CCCC2(C)C)cc1` [EPR, N-[4-ethoxyphenyl]retinamide], the negative logarithm of the EC50 (pEC50) on RARβ [1] is 5.36. In addition, the “effect on BCO1 activity” value on recombinant mouse BCO1 is given as “does not inhibit BCO1 activity”. Besides, the “competition with all-trans-retinoic acid” value at RARβ [2] is recorded as “cannot compete”. In addition, the “RBP4 binding compared with MPR” value at RBP4 was “less potent inhibitor”.
